# From patent US20220396567A1, “SUBSTITUTED PYRIMIDINE FOR THE TREATMENT AND PROPHYLAXIS OF HEPATITIS B VIRUS INFECTION” (Hoffmann-La Roche Inc., priority 2019, published 2022)
# System: HBV
# Assay: Cryopreserved primary human hepatocytes (PHH) HBV infection assay, extracellular HBsAg by CLIA
# Assay type: cell-based
# Settings: Hepatitis B virus, Hepatocyte, 216 h; HBV-infected cryopreserved PHH; extracellular HBsAg at 9 days post-compound treatment; 4 parameter logistic curve fit
# Experimental: This assay is used to confirm the anti-HBV effect of the compounds in HBV PHH infection assay. Cryopreserved PHH (BioreclamationIVT, Lot YJM) was thawed at 37° C. and gently transferred into pre-warmed InVitroGRO HT medium (BioreclamationIVT, Cat. S03317). The mixture was centrifuged at 70 relative centrifugal force (RCF) for 3 min at RT, and the supernatant was discarded. Pre-warmed InVitroGRO CP medium (BioreclamationIVT, Cat #S03316) was added to the cell pellet to gently re-suspend cells. The cells were seeded at the density of 5.8×10^4 cells per well to collagen I coated 96-well plate (Gibco, Cat. A1142803) with the InVitroGRO CP medium. All plates were incubated at 37° C. with 5% CO2 and 85% humidity.
# At 20 hrs after plating, the medium was changed to PHH culture medium (Dulbecco's Modified Eagle Medium (DMEM)/F12 (1:1) (Gibco, Cat. 11320-033), 10% fetal bovine serum (Gibco Cat. 10099141), 100 U/mL penicillin, 100 μg/mL streptomycin (Gibco, Cat. 151401-122), […] (Invitrogen Cat. PHG0311L), 20 ng/mL dexamethasone (Sigma, Cat. D4902) and 250 ng/mL human recombinant insulin (Gibco, Cat. 12585-014)). And the cells were incubated at 37° C. with 5% CO2 and 85% humidity for 4 hrs. The medium was then changed to pre-warmed PHH culture medium containing 4% polyethylene glycol (PEG) MW8000 (Sigma, Cat. P1458-50 ML) and 1% DMSO (Sigma, Cat. D2650). 5.8×10^6 genomic equivalents of HBV were added into the medium.
# At 24 hrs post-infection, the cells were gently washed with PBS and refreshed with PHH culture medium supplemented with 1% DMSO, and 0.25 mg/mL Matrix gel (Corning, Cat. 356237) at 200 μL per well. All plates were immediately placed in at 37° C. CO2 incubator.
# 24 hrs later, serial dilutions of compounds made with DMSO were further diluted with the same culture medium (PHH culture medium supplemented with 1% DMSO and 0.25 mg/mL Matrix gel as described above) before they were added to the cells to reach desired final compound concentrations and 1% DMSO concentration. The medium containing the compounds were refreshed every three days.
# At 9 days post-compound treatment, extracellular HBsAg level were measured with Chemiluminescence Immuno Assay (CLIA) kit (Autobio, HBsAg Quantitative CLIA).
# HBsAg IC50 was derived from the dose-response curve using 4 parameter logistic curve fit method. The compounds of formula (I) have HBsAg IC50<20 μM, particularly <1 μM.
row,Structure (SMILES),IC50
1,"N#Cc1c(NCc2ccccc2N)ncnc1-c1ccco1 [Example 31, 4-[(2-aminophenyl)methylamino]-6-(2-furyl)pyrimidine-5-carbonitrile]",0.27 µM
2,COc1cccc(CN(C)c2nc(N)nc(-c3ccco3)c2C#N)c1 [Example 6],10.1 µM
3,"CCCNc1nc(NCc2cccc(C(F)(F)F)c2)c(C#N)c(-c2ccco2)n1 [Example 15, 4-(2-furyl)-2-(propylamino)-6-[[3-(trifluoromethyl)phenyl]methylamino]pyrimidine-5-carbonitrile]",3.01 µM
4,"N#Cc1c(NCC2CCCCC2)nc(N)nc1-c1ccco1 [Example 10, 2-amino-4-(cyclohexylmethylamino)-6-(2-furyl)pyrimidine-5-carbonitrile]",3.62 µM
5,"N#Cc1c(NCC2CCCC2)ncnc1-c1ccco1 [Example 29, 4-(cyclopentylmethylamino)-6-(2-furyl)pyrimidine-5-carbonitrile]",2.61 µM
6,"Nc1nc(NCc2cccc(C(F)(F)F)c2)c(C(=O)O)c(-c2ccco2)n1 [Example 38, 2-amino-4-(2-furyl)-6-[[3-(trifluoromethyl)phenyl]methylamino]pyrimidine-5-carboxylic Acid]",2.49 µM
7,"CN(C)c1nc(NCC2CCCC2)c(C(=O)O)c(-c2ccco2)n1 [Example 43, 4-(cyclopentylmethylamino)-2-(dimethylamino)-6-(2-furyl)pyrimidine-5-carboxylic Acid]",5.55 µM
8,"CC(C)Oc1ccc(CNc2nc(N)nc(-c3ccco3)c2C#N)cc1Br [Example 2, 2-amino-4-[(3-bromo-4-isopropoxy-phenyl)methylamino]-6-(2-furyl)pyrimidine-5-carbonitrile]",3.28 µM
9,"CN(C)c1nc(NCc2ccccc2N)cc(-c2ccco2)n1 [Example 33, N4-[(2-aminophenyl)methyl]-6-(2-furyl)-N2,N2-dimethyl-pyrimidine-2,4-diamine]",7.58 µM
10,"N#Cc1c(NC2CCCC2)nc(N)nc1-c1ccco1 [Example 9, 2-amino-4-(cyclopentylamino)-6-(2-furyl)pyrimidine-5-carbonitrile]",8.68 µM
11,"CCOC(=O)c1c(NCc2c(Br)ccc(OC)c2OC)nc(N)nc1-c1ccco1 [Example 44, Ethyl 2-amino-4-[(6-bromo-2,3-dimethoxy-phenyl)methylamino]-6-(2-furyl)pyrimidine-5-carboxylate]",8.06 µM
12,"Nc1nc(NCc2ccccc2N)cc(-c2cccs2)n1 [Example 36, N4-[(2-aminophenyl)methyl]-6-(2-thienyl)pyrimidine-2,4-diamine]",6.62 µM
13,"N#Cc1c(NCC2CCC(F)(F)C2)nc(N)nc1-c1ccco1 (centres unmarked) [Example 8, 2-amino-4-[(3,3-difluorocyclopentyl)methylamino]-6-(2-furyl)pyrimidine-5-carbonitrile]",10.2 µM
14,"Nc1nc(NCc2cccc(C(F)(F)F)c2)c(C(=O)N2CCCCC2)c(-c2ccco2)n1 [Example 54, [2-amino-4-(2-furyl)-6-[[3-(trifluoromethyl)phenyl]methylamino]pyrimidin-5-yl]-(1-piperidyl)methanone]",6.59 µM
15,"CSc1nc(NCc2cccc(C(F)(F)F)c2)c(C#N)c(-c2ccco2)n1 [Example 11, 4-(2-furyl)-2-methylsulfanyl-6-[[3-(trifluoromethyl)phenyl]methylamino]pyrimidine-5-carbonitrile]",2.35 µM
16,"COc1nc(NCc2cccc(C(F)(F)F)c2)c(C#N)c(-c2ccco2)n1 [Example 17, 4-(2-furyl)-2-methoxy-6-[[3-(trifluoromethyl)phenyl]methylamino]pyrimidine-5-carbonitrile]",3.35 µM
17,"CC(Nc1nc(N)nc(-c2ccco2)c1C#N)c1ccccc1 (centres unmarked) [Example 1, 2-amino-4-(2-furyl)-6-(1-phenylethylamino)pyrimidine-5-carbonitrile]",5.93 µM
18,"CN(Cc1ccccc1)c1nc(N)nc(-c2ccco2)c1C(=O)O [Example 42, 2-amino-4-[benzyl(methyl)amino]-6-(2-furyl)pyrimidine-5-carboxylic Acid]",5.27 µM
19,"Cc1nc(NC2(c3ccccc3S(C)(=O)=O)CC2)c(C#N)c(-c2ccco2)n1 [Example 22, 4-(2-furyl)-2-methyl-6-[[1-(2-methylsulfonylphenyl)cyclopropyl]amino]pyrimidine-5-carbonitrile]",2.73 µM
20,"COc1nc(NC(C)c2cccc(C(F)(F)F)c2)cc(-c2ccco2)n1 (centres unmarked) [Example 34, 6-(2-furyl)-2-methoxy-N-[1-[3-(trifluoromethyl)phenyl]ethyl]pyrimidin-4-amine]",3.49 µM
21,"N#Cc1c(NCC(F)Cc2ccccc2Cl)nc(N)nc1-c1ccco1 (centres unmarked) [Example 4, 2-amino-4-[[3-(2-chlorophenyl)-2-fluoro-propyl]amino]-6-(2-furyl)pyrimidine-5-carbonitrile]",11.4 µM
22,"N#Cc1c(NCc2cccc(C(F)(F)F)c2)nc(NCC(F)(F)F)nc1-c1ccco1 [Example 13, 4-(2-furyl)-2-(2,2,2-trifluoroethylamino)-6-[[3-(trifluoromethyl)phenyl]methylamino]pyrimidine-5-carbonitrile]",3.93 µM
23,"CC(Nc1nc(N)nc(-c2ccco2)c1C#N)c1cccc(C(F)(F)F)c1 (centres unmarked) [Example 5, 2-amino-4-(2-furyl)-6-[1-[3-(trifluoromethyl)phenyl]ethylamino]pyrimidine-5-carbonitrile]",0.47 µM
24,"CCOC(=O)c1c(NCc2cccc(C(F)(F)F)c2)nc(C)nc1-c1ccco1 [Example 61, Ethyl 4-(2-furyl)-2-methyl-6-[[3-(trifluoromethyl)phenyl]methylamino]pyrimidine-5-carboxylate]",7.38 µM
25,"Nc1nc(NCc2cccc(C(F)(F)F)c2)c(C(=O)N2CCCC2)c(-c2ccco2)n1 [Example 53, [2-amino-4-(2-furyl)-6-[[3-(trifluoromethyl)phenyl]methylamino]pyrimidin-5-yl]-pyrrolidin-1-yl-methanone]",9.25 µM
26,"CS(=O)(=O)c1ccccc1C1(Nc2nc(N)nc(-c3ccco3)c2C#N)CC1 [Example 7, 2-amino-4-(2-furyl)-6-[[1-(2-methylsulfonylphenyl)cyclopropyl]amino]pyrimidine-5-carbonitrile]",1.78 µM
27,"Cc1nc(NCc2ccc(OC(C)C)c(Br)c2)c(C#N)c(-c2ccco2)n1 [Example 21, 4-[(3-bromo-4-isopropoxy-phenyl)methylamino]-6-(2-furyl)-2-methyl-pyrimidine-5-carbonitrile]",6.66 µM
28,"CCCCOc1nc(NCc2cccc(C(F)(F)F)c2)c(C#N)c(-c2ccco2)n1 [Example 19, 2-butoxy-4-(2-furyl)-6-[[3-(trifluoromethyl)phenyl]methylamino]pyrimidine-5-carbonitrile]",2.42 µM
29,"N#Cc1c(NCc2ccccc2Cl)ncnc1-c1ccco1 [Example 24, 4-[(2-chlorophenyl)methylamino]-6-(2-furyl)pyrimidine-5-carbonitrile]",3.07 µM
